These results are taken from patent publication US20130196362A1, “DIARYLAMINE-BASED FLUOROGENIC PROBES FOR DETECTION OF PEROXYNITRITE” (THE UNIVERSITY OF HONG KONG, priority 2012, published 2013).

Data set [1] is described as follows: Reactivity of probe toward different ROS and RNS (selectivity) in phosphate buffer. The settings on record: for increase in fluorescence intensity with peroxynitrite versus other ROS and RNS: OCl-, pH 7.4. How it is done:
(§1) FIG. 1A depicts fluorescence spectra showing fluorescence intensities of compound 2 after treatment with different amounts of peroxynitrite. […] The spectra were acquired by dissolving Compound 2 in 0.1 M phosphate buffer at pH 7.4 to form a 1 μM solution, with excitation and emission spectra at 510 nm and 530 nm, respectively. The concentration of highly reactive oxygen species hydroxyl radical (.OH), hypochlorous acid (^−OCl), and peroxynitrite (ONOO^−) is 1 μM. The concentration of ^1O2, O2.^−, NO, ROO. and H2O2 is 10 μM.
(§2) FIG. 2A depicts fluorescence spectra showing fluorescence intensities of Compound 11 after treatment with different amounts of peroxynitrite. […] The spectra were acquired by dissolving […] in 0.1M phosphate buffer at pH 7.4 to form a 2 μM solution, with excitation and emission at 547 nm and 570 nm, respectively. The concentration of highly reactive oxygen species hydroxyl radical (.OH), hypochlorous acid (^−OCl), and peroxynitrite (ONOO^−) is 2 μM. The concentration of ^1O2, O2.^−, NO, ROO. and H2O2 is 20 μM.
(§3) FIG. 3A depicts fluorescence spectra showing fluorescence intensities of Compound 22 after treatment with different amounts of peroxynitrite. […] The spectra were acquired by dissolving Compound 22 in 0.1M phosphate buffer at pH 7.4 to form a 5 μM solution, with excitation at 600 nm and emission at 617 nm, respectively. The concentration of highly reactive oxygen species hydroxyl radical (.OH), hypochlorous acid (^−OCl), and peroxynitrite (ONOO^−) is 5 μM. The concentration of ^1O2, O2.^−, NO, ROO. and H2O2 is 50 μM.
(§4) FIG. 4A depicts fluorescence spectra showing fluorescence intensities of Compound 25 after treatment with different amounts of peroxynitrite. […] The spectra were acquired by dissolving Compound 25 in 0.1M phosphate buffer at pH 7.4 to form a 5 μM solution, with excitation at 650 nm and emission at 665 nm, respectively. The concentration of highly reactive oxygen species hydroxyl radical (.OH), hypochlorous acid (^−OCl), and peroxynitrite (ONOO^−) is 5 μM. The concentration of ^1O2, O2.^−, NO, ROO. and H2O2 is 50 μM.
(§5) FIG. 5A depicts fluorescence spectra showing fluorescence intensities of Compound 30 after treatment with different amounts of peroxynitrite. […] The spectra were acquired by dissolving Compound 30 in 0.1 M phosphate buffer at pH 7.4 and exciting at 515 nm. The concentration of highly reactive oxygen species hypochlorous acid (^−OCl) and peroxynitrite (ONOO^−) is 1 μM. The concentration of hydroxyl radical (.OH) is 1 μM or 10 μM. The concentration of ^1O2, O2.^−, NO, ROO. and H2O2 is 10 μM or 100 μM. (see figure for exact concentrations of certain ROS and RNS)
The reactivity of Compound 2 is compared toward different reactive oxygen species (ROS) and reactive nitrogen species (RNS). Specifically, the 1 μM solution of compound 2 is treated with various ROS and RNS. The concentration of highly reactive oxygen species (hydroxyl radical (.OH), hypochlorous acid (^−OCl), and peroxynitrite (ONOO^−)) is 1 μM. The concentration of ^1O2, O2.^−, NO, ROO. and H2O2 is 10 μM.
The reactivity of Compound 11 is compared with different reactive oxygen species (ROS) and reactive nitrogen species (RNS). Specifically, the 2 μM solution of compound 11 is treated with various ROS and RNS. The concentration of highly reactive oxygen species (hydroxyl radical (.OH), hypochlorous acid (^−OCl), and peroxynitrite (ONOO^−)) is 2 μM. The concentration of ^1O2, O2.^−, NO, ROO. and H2O2 is 20 μM.
The reactivity of Compound 22 is compared with different reactive oxygen species (ROS) and reactive nitrogen species (RNS). Specifically, the 5 μM solution of compound 22 is treated with various ROS and RNS. The concentration of highly reactive oxygen species (hydroxyl radical (.OH), hypochlorous acid (^−OCl), and peroxynitrite (ONOO^−)) is 5 μM. The concentration of ^1O2, O2.^−, NO, ROO. and H2O2 is 50 μM. […]

A short description of data set [2]: Fluorescence response of probe to increasing peroxynitrite in phosphate buffer. How it is done: as §1, §2, §3, §4, §5
Specifically, Compound 2 is dissolved in 0.1 M phosphate buffer at pH 7.4 to form a 1 μM solution, with excitation and emission spectra at 510 nm and 530 nm, respectively. The 1 μM solution of Compound 2 is treated with peroxynitrite at various concentrations.
Specifically, Compound 11 is dissolved in 0.1 M phosphate buffer at pH 7.4 to form a 2 μM solution, with excitation and emission spectra at 547 nm and 570 nm, respectively. The 2 μM solution of Compound 11 is treated with peroxynitrite at various concentrations.
Specifically, Compound 22 is dissolved in 0.1 M phosphate buffer at pH 7.4 to form a 5 μM solution, with excitation and emission spectra at 600 nm and 617 nm, respectively. The 5 μM solution of Compound 22 is treated with peroxynitrite at various concentrations. […]

For data set [3], the system named is C17.2 neural progenitor cells. Put plainly: Fluorescent microscopy of C17.2 cells with or without SIN-1. It counts as cell-based, Mouse. The settings on record: for fluorescence in the absence of stimulants: no SIN-1; for fluorescence after treatment with stimulants: with SIN-1. The method, then: The cells were incubated with Compound 20 or 21 at a concentration of 1 μM, and then treated with (Lower) or without (Upper) SIN-1.
The cells were incubated with Compound 32 at a concentration of 5 μM.
(§6) Human SH-SY5Y neuroblastoma cells (ATCC, USA) were maintained in high glucose Dulbecco's Modified Eagle Medium (DMEM, Hyclone) supplemented with 10% fetal bovine serum (FBS, Gibco), 1% penicillin/streptomycin (PS, Gibco) and 1% L-glutamine (Gibco). Mouse C17.2 neural progenitor cells (ATCC, USA) were maintained in high glucose Dulbecco's Modified Eagle Medium supplemented with 8% fetal bovine serum (Gibco), 4% horse serum (Gibco), 1% penicillin/streptomycin and 1% L-glutamine. Mouse RAW264.7 macrophage cells (ATCC, USA) were maintained in high glucose Dulbecco's Modified Eagle Medium (DMEM, Hyclone) supplemented with 10% fetal bovine serum (Gibco), 1% penicillin/streptomycin (Gibco) and 1% L-glutamine.
(§7) Generally, cells were grown to confluence prior to experiment. Cells were incubated with Compounds) 6, 7, 8, 14, 20, 21, 24, 27, and 32, respectively for 1 hr, and then washed three times with PBS buffer.

The test system of data set [4] is SH-SY5Y neuroblastoma cells. Nature of the data set: Fluorescent microscopy of SH-SY5Y cells with or without SIN-1. It counts as cell-based, Human. The settings on record: incubated 1 hr; for fluorescence in the absence of stimulants: washed with PBS, no SIN-1; for fluorescence after treatment with stimulants: with SIN-1. The method, then:
SH-SY5Y cells were co-stained with different compounds with or without SIN-1 for 1 h, and then washed quickly with PBS for 3 times and maintained in non-phenol red medium. Left: no SIN-1 treatment; Right: with SIN-1 treatment.
SH-SY5Y cells were co-stained with different compounds with or without SIN-1 for 1 h, and then washed quickly with PBS for 3 times and maintained in non-phenol red medium. Left: no SIN-1 treatment; Middle: with 1 mM SIN-1 treatment; Right: with 100 μM SIN-1 treatment.
SH-SY5Y cells were co-stained with different compounds with or without SIN-1 for 1 h, and then washed quickly with PBS for 3 times and maintained in non-phenol red medium. Left: no SIN-1 treatment; Middle: with 100 μM SIN-1 treatment; Right: with 200 μM SIN-1 treatment.
as §6, §7

Take `CC[N+]1=c2cc3c(cc2C(C)CC1(C)C)=C(c1ccc(C(=O)O)cc1C)c1ccc(N(C)c2ccc(O)cc2)cc1[Si]3(C)C` (stereo not drawn) [Compound 25]: the “increase in fluorescence intensity with peroxynitrite versus other ROS and RNS” value (from here on “increase in fluorescence intensity”) in data set [1] (5 μM probe, ex 650/em 665 nm, .OH, ONOO- 5 μM, 1O2, O2.-, NO, ROO., H2O2 50 μM) is given as “much higher increase in fluorescence intensity”. Also, in data set [2] (5 μM solution in 0.1 M phosphate buffer pH 7.4, excitation 650 nm, emission 665 nm), the “fluorescence intensity after treatment with peroxynitrite at various concentrations” value (“fluorescence intensity after treatment” for short) is given as “increases with increasing concentration of peroxynitrite”.
`Cc1cc(C(=O)O)ccc1C1=C2C=CC(=O)C=C2[Si](C)(C)c2cc(N(C)c3ccc(O)cc3)ccc21` [Compound 22]: the “increase in fluorescence intensity” value in data set [1] (5 μM probe, ex 600/em 617 nm, .OH, ONOO- 5 μM, 1O2, O2.-, NO, ROO., H2O2 50 μM) is recorded as “much higher increase in fluorescence intensity”. Moreover, the “fluorescence intensity after treatment” value in data set [2] (5 μM solution in 0.1 M phosphate buffer pH 7.4, excitation 600 nm, emission 617 nm) is given as “increases with increasing concentration of peroxynitrite”.
For the compound `CC[N+]1=c2cc3c(cc2C(C)CC1(C)C)=C(c1ccc(C)cc1C)c1ccc(N(C)c2ccc(O)cc2)cc1O3` (stereo not drawn) [Compound 21], in data set [3], the “fluorescence in the absence of stimulants” value (“fluorescence in the absence” for short) is reported as “very weak fluorescence” and the “fluorescence after treatment with stimulants” value (from here on “fluorescence after treatment”) was “strongly induced”.
Regarding `COC(=O)CN(CC(=O)OC)C(=O)c1ccc(C2=C3C=CC(=O)C=C3[Si](C)(C)c3cc(N(C)c4ccc(O)cc4)ccc32)c(C)c1` [Compound 24], in data set [4], the “fluorescence in the absence” value is given as “very weak fluorescence” and the “fluorescence after treatment” value is “strongly induced”.
As to `COC(=O)CCN(CCC(=O)OC)C(=O)c1ccc2c(c1)C(=O)OC21c2ccc(OC(C)=O)cc2Oc2cc(N(C)c3ccc(O)cc3)ccc21` (stereo not drawn) [Compound 8], in data set [4], the “fluorescence in the absence” value was “very weak fluorescence” and the “fluorescence after treatment” value is reported as “strongly induced”.
As to `CC1CC(C)(C)[N+](CCCC(=O)O)=c2cc3c(cc21)=C(c1ccccc1C(=O)O)c1cc(Cl)c(N(C)c2ccc(O)cc2)cc1O3` (stereo not drawn) [Compound 11], the “increase in fluorescence intensity” value in data set [1] (2 μM probe, .OH, ONOO- 2 μM, 1O2, O2.-, NO, ROO., H2O2 20 μM) was “much higher increase in fluorescence intensity”. Besides, the “fluorescence intensity after treatment” value in data set [2] (2 μM solution in 0.1 M phosphate buffer pH 7.4, excitation 547 nm, emission 570 nm) was “increases with increasing concentration of peroxynitrite”.
Consider `CN(c1ccc(O)cc1)c1ccc2c(-c3ccc(C(=O)N(CC(=O)O)CC(=O)O)cc3C(=O)O)c3ccc(=O)cc-3oc2c1` [Compound 2], for which the “increase in fluorescence intensity” value in data set [1] (1 μM probe, .OH, ONOO- 1 μM, 1O2, O2.-, NO, ROO., H2O2 10 μM) is reported as “much higher increase in fluorescence intensity”. Moreover, the “fluorescence intensity after treatment” value in data set [2] (1 μM solution in 0.1 M phosphate buffer pH 7.4, excitation 510 nm, emission 530 nm) is reported as “increases with increasing concentration of peroxynitrite”.
On to `CN(c1ccc(O)cc1)c1ccc2c(-c3ccccc3C(=O)N3CCN(C(=O)CCCC[P+](c4ccccc4)(c4ccccc4)c4ccccc4)CC3)c3ccc(=O)cc-3oc2c1` [Compound 30], for which the “increase in fluorescence intensity” value in data set [1] (1 μM solution of compound 30, ex 515 nm, em 540 nm, ONOO- 1 μM, .OH 1 or 10 μM, others 10 or 100 μM) was “sensitively and selectively detects peroxynitrite”. This compound came in with an emission maximum in data set [1] (0.1 M phosphate buffer pH 7.4, exciting at 515 nm) of 540 nm. Besides, the “fluorescence intensity after treatment” value in data set [2] (1 μM solution in 0.1 M phosphate buffer pH 7.4, excited at 515 nm) was “increases with increasing concentration of peroxynitrite”.
Take `CC[N+]1=c2cc3c(cc2C(C)CC1(C)C)=C(c1ccc(CCl)cc1C)c1ccc(N(C)c2ccc(O)cc2)cc1O3` (stereo not drawn) [Compound 20]: in data set [3], the “fluorescence in the absence” value is “very weak fluorescence” and the “fluorescence after treatment” value is reported as “strongly induced”.
As to `COC(=O)CN(CC(=O)OC)C(=O)c1ccc2c(c1)C(=O)OC21c2ccc(OC(C)=O)cc2Oc2cc(N(C)c3ccc(O)cc3)ccc21` (stereo not drawn) [Compound 7], in data set [4], the “fluorescence in the absence” value is reported as “very weak fluorescence” and the “fluorescence after treatment” value is “strongly induced”.
